The values below come from patent US4181717A, “Ovulation enhancing peptides” (Research Corporation, priority 1978, dated 1980).

In this test the test system is hamsters. Put plainly: Ovulation enhancement study in hamsters (ova count after 4 days of subcutaneous dosing). As to conditions: ova counted on fifth day, untreated control mean 11.3. It is filed as in vivo. On the procedure: In one study carried out with hamsters utilizing H--Thr--Arg--Lys--Arg--OH diacetate, each of six animals was injected subcutaneously at various dosage levels as indicated in the Table for each of the four days of the estrous cycle. On the fifth day, the animals were sacrificed, the left and right ovaries and oviducts of each animal collected, sectioned, stained, and the ova counted. The figures given in the second column are the mean numbers of ova for six animals at each dosage level. In a control group of 20 animals which were not treated with the ovulation enhancing compound, the mean number of ova counted under similar conditions was 11.3.

Residues, ends and D or L forms follow the SMILES beside them.

`C[C@@H](O)[C@H](N)C(=O)N[C@@H](CCCNC(=N)N)C(=O)N[C@@H](CCCCN)C(=O)N[C@@H](CCCNC(=N)N)C(=O)O` [H--Thr--Arg--Lys--Arg--OH diacetate, H--Thr--Arg--Lys--Arg--OH] (H-TRKR-OH): the “Number of OVA (mean number of ova for six animals)” value was 13.7 (0.10 μgm/100 gm/day on each of the four days of the estrous cycle), 14.1 (0.30 μgm/100 gm/day on each of the four days of the estrous cycle), 15.5 (3.00 μgm/100 gm/day on each of the four days of the estrous cycle) and 15.6 (30.00 μgm/100 gm/day on each of the four days of the estrous cycle).
